Legend:
Experiment in all cases: Transient transfection (transactivation) assay in CV-1 cells, GAL4-PPAR chimera, luciferase reporter
Format in all cases: cell-based
[1] = target: T1, PPAR alpha (Homo sapiens, UniProt Q07869)
T1 construct: expressed in transfected cells; host or cells: CV-1 cells
T1 sequence (Q07869 239-466 limits assumed): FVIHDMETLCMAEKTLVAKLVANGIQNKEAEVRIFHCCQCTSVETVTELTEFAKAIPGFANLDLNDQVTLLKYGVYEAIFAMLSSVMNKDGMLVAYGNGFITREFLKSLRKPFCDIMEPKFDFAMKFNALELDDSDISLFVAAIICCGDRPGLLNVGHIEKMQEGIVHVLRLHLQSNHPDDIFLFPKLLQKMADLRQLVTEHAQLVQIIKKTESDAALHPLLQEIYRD
Method in brief: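 EC50 and efficacy come from a luciferase read-out after 20-24 hours of compound exposure (vehicle 1% DMSO) in transiently transfected CV-1 cells. These cells express a GAL4-PPAR ligand-binding-domain chimera plus a reporter with four or five GAL4 binding sites, and are kept in phenol-red free DME with 5% delipidated calf serum.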

[2] = target: T2, PPAR delta (Homo sapiens, UniProt Q03181)
T2 construct: expressed in transfected cells; host or cells: CV-1 cells
T2 sequence (Q03181 211-439 limits assumed): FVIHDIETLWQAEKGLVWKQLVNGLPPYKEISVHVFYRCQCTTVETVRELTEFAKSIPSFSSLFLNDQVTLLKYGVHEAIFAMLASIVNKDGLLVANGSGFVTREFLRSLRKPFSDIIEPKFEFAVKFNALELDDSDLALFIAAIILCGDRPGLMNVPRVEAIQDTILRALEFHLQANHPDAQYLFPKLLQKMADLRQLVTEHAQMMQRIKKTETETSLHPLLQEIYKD

[3] = target: T3, PPAR gamma (Homo sapiens, UniProt P37231)
T3 construct: expressed in transfected cells; host or cells: CV-1 cells
T3 sequence (P37231 238-503 limits assumed): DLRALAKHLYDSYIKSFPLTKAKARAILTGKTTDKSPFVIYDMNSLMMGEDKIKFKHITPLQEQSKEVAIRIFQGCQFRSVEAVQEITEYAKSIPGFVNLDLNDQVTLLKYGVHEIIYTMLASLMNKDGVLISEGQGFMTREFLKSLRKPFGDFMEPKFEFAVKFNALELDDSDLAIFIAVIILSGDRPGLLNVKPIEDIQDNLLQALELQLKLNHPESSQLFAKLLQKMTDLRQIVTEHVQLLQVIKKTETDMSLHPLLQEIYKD

EC50 [1]	EC50 [2]	EC50 [3]	Compound
> 100 µM	5 to 100 µM	> 100 µM	C[C@@H]1CN(c2ccc(C(F)(F)F)cn2)C[C@H](C)N1S(=O)(=O)c1ccc(O)c(CCC(=O)O)c1 [Example 193, 3-{5-[2,6-Dimethyl-4-(5-trifluoromethyl-pyridin-2-yl)-piperazine-1-sulfonyl]-2-hydroxy-phenyl}-propionic acid]
> 100 µM	< 5 µM	> 100 µM	COc1ccc(S(=O)(=O)N2[C@H](C)CN(c3ccc(C(F)(F)F)cn3)C[C@@H]2C)cc1CCC(=O)O [Example 194, 3-{5-[2,6-Dimethyl-4-(5-trifluoromethyl-pyridin-2-yl)-piperazine-1-sulfonyl]-2-methoxy-phenyl}-propionic acid]
5 to 100 µM	< 5 µM	5 to 100 µM	Cc1cc(CC(=O)O)cc(S(=O)(=O)N2[C@@H](C)CN(c3ccc(C(F)(F)F)cn3)C[C@@H]2C)c1 [Example 195, {3-[2,6(S,S)-Dimethyl-4-(5-trifluoromethyl-pyridin-2-yl)-piperazine-1-sulfonyl]-5-methyl-phenyl}-acetic acid]
5 to 100 µM	< 5 µM	< 5 µM	Cc1cc(S(=O)(=O)N2CCN(c3ccc(C(F)(F)F)cn3)CC2)cc(CC(=O)O)c1Br [Example 196, {2-Bromo-3-methyl-5-[4-(5-trifluoromethyl-pyridin-2-yl)-piperazine-1-sulfonyl]-phenyl}-acetic acid]
> 100 µM	< 5 µM	5 to 100 µM	Cc1cc(S(=O)(=O)N2[C@H](C)CN(c3ccc(C(F)(F)F)cn3)C[C@@H]2C)cc(CC(=O)O)c1Br [Example 197, {2-Bromo-5-[2,6-dimethyl-4-(5-trifluoromethyl-pyridin-2-yl)-piperazine-1-sulfonyl]-3-methyl-phenyl}-acetic acid]
5 to 100 µM	< 5 µM	5 to 100 µM	Cc1cc(S(=O)(=O)N2[C@H](C)CN(c3ccc(OC(F)(F)F)cc3)C[C@@H]2C)cc(CC(=O)O)c1Br [Example 198, {2-Bromo-5-[2,6-dimethyl-4-(4-trifluoromethoxy-phenyl)-piperazine-1-sulfonyl]-3-methyl-phenyl}-acetic acid]
5 to 100 µM	< 5 µM	5 to 100 µM	O=C(O)Cc1cc(Br)cc(S(=O)(=O)N2CCN(c3ccc(C(F)(F)F)cn3)CC2)c1 [Example 199, {3-Bromo-5-[4-(5-trifluoromethyl-pyridin-2-yl)-piperazine-1-sulfonyl]-phenyl}acetic acid]
5 to 100 µM	< 5 µM	5 to 100 µM	C[C@@H]1CN(c2ccc(OC(F)(F)F)cc2)C[C@H](C)N1S(=O)(=O)c1cc(Br)cc(CC(=O)O)c1 [Example 200, {3-Bromo-5-[2,6-dimethyl-4-(4-trifluoromethoxy-phenyl)-piperazine-1-sulfonyl]-phenyl}-acetic acid]
5 to 100 µM	< 5 µM	5 to 100 µM	O=C(O)Cc1cc(Br)cc(S(=O)(=O)N2CCN(c3ccc(OC(F)(F)F)cc3)CC2)c1 [Example 201, {3-Bromo-5-[4-(4-trifluoromethoxy-phenyl)-piperazine-1-sulfonyl]-phenyl}-acetic acid]
5 to 100 µM	< 5 µM	5 to 100 µM	O=C(O)Cc1cc(C(F)(F)F)cc(S(=O)(=O)N2CCN(c3ccc(C(F)(F)F)cc3)CC2)c1 [Example 202, {3-Trifluoromethyl-5-[4-(4-trifluoromethyl-phenyl)-piperazine-1-sulfonyl]-phenyl}-acetic acid]
5 to 100 µM	< 5 µM	5 to 100 µM	O=C(O)Cc1cc(C(F)(F)F)cc(S(=O)(=O)N2CCN(c3ccc(C(F)(F)F)cn3)CC2)c1 [Example 203, {3-Trifluoromethyl-5-[4-(5-trifluoromethyl-pyridin-2-yl)-piperazine-1-sulfonyl]-phenyl}-acetic acid]
> 100 µM	< 5 µM	> 100 µM	C[C@@H]1CN(c2ccc(C(F)(F)F)cn2)C[C@H](C)N1S(=O)(=O)c1cc(CC(=O)O)cc(C(F)(F)F)c1 [Example 204, {3-[2,6-Dimethyl-4-(5-trifluoromethyl-pyridin-2-yl)-piperazine-1-sulfonyl]-5-trifluoromethyl-phenyl}-acetic acid]
5 to 100 µM	< 5 µM	5 to 100 µM	Cc1ccc(S(=O)(=O)N2CCN(c3ccc(C(F)(F)F)cn3)C(C(F)(F)F)C2)cc1CC(=O)O (stereo not drawn) [Example 205, {2-Methyl-5-[3-trifluoromethyl-4-(5-trifluoromethyl-pyridin-2-yl)-piperazine-1-sulfonyl]-phenyl}-acetic acid]
> 100 µM	< 5 µM	5 to 100 µM	COc1ccc(S(=O)(=O)N2[C@H](C)CN(c3ccc(OC(F)(F)F)cn3)C[C@@H]2C)cc1CC(=O)O [Example 206, {5-[2,6-Dimethyl-4-(5-trifluoromethoxy-pyridin-2-yl)-piperazine-1-sulfonyl]-2-methoxy-phenyl}-acetic acid]
5 to 100 µM	< 5 µM	5 to 100 µM	O=C(O)Cc1cc(S(=O)(=O)N2CCN(c3ccc(C(F)(F)F)cn3)CC2)ccc1O [Example 207, {5-[4-(5-trifluoromethyl-pyridin-2-yl)-piperazine-1-sulfonyl]-2-hydroxy-phenyl}-acetic acid]
5 to 100 µM	< 5 µM	> 100 µM	O=C(O)Cc1cc(S(=O)(=O)N2CCN(c3ccc(C(F)(F)F)cc3)CC2)ccc1O [Example 208, {5-[4-(4-trifluoromethyl-phenyl)-piperazine-1-sulfonyl]-2-hydroxy-phenyl}-acetic acid]
> 100 µM	5 to 100 µM	> 100 µM	C[C@@H]1CN(c2ccc(OC(F)(F)F)cc2)C[C@H](C)N1S(=O)(=O)c1ccc(O)c(CC(=O)O)c1 [Example 209, {5-[2,6-Dimethyl-4-(4-trifluoromethoxy-phenyl)-piperazine-1-sulfonyl]-2-hydroxy-phenyl}-acetic acid]
5 to 100 µM	5 to 100 µM	5 to 100 µM	O=C(O)CSCc1cccc(S(=O)(=O)N2CCN(c3ccc(C(F)(F)F)cc3)CC2)c1 [Example 210, {3-[4-(4-Trifluoromethyl-phenyl)-piperazine-1-sulfonyl]-benzylsulfanyl}-acetic acid]
> 100 µM	> 100 µM	> 100 µM	O=C(O)COCc1cccc(S(=O)(=O)N2CCN(c3ccc(C(F)(F)F)cc3)CC2)c1 [Example 211, {3-[4-(4-Trifluoromethyl-phenyl)-piperazine-1-sulfonyl]-benzyloxy}-acetic acid]
5 to 100 µM	> 100 µM	5 to 100 µM	CC(C)(OCc1cccc(S(=O)(=O)N2CCN(c3ccc(C(F)(F)F)cc3)CC2)c1)C(=O)O [Example 212, 2-Methyl-2-{3-[4-(4-trifluoromethyl-phenyl)-piperazine-1-sulfonyl]-benzyloxy}-propionic acid]
5 to 100 µM	< 5 µM	5 to 100 µM	Cc1cc(CC(=O)O)cc(S(=O)(=O)N2CCN(c3ccc(OC(F)(F)F)cc3)C[C@@H]2C)c1 [Example 213, {3-Methyl-5-[2-(S)-methyl-4-(4-trifluoromethoxy-phenyl)-piperazine-1-sulfonyl]phenyl}-acetic acid]
5 to 100 µM	< 5 µM	5 to 100 µM	Cc1ccc(S(=O)(=O)N2CCN(c3ccc(OC(F)(F)F)cc3)C[C@@H]2C)cc1CC(=O)O [Example 214, {2-Methyl-5-[2-(S)-methyl-4-(4-trifluoromethoxy-phenyl)-piperazine-1-sulfonyl]-phenyl}-acetic acid]
5 to 100 µM	< 5 µM	5 to 100 µM	C[C@H]1CN(c2ccc(C(F)(F)F)c(F)c2)CCN1S(=O)(=O)c1cccc(CC(=O)O)c1 [Example 215, {3-[4-(3-Fluoro-4-trifluoromethyl-phenyl)-2-(S)-methyl-piperazine-1-sulfonyl]-phenyl}-acetic acid]
5 to 100 µM	< 5 µM	5 to 100 µM	Cc1cc(CC(=O)O)cc(S(=O)(=O)N2CCN(c3ccc(C(F)(F)F)c(F)c3)C[C@@H]2C)c1 [Example 216, {3-[4-(3-Fluoro-4-trifluoromethyl-phenyl)-2-(S)-methyl-piperazine-1-sulfonyl]-5-methyl-phenyl}-acetic acid]
5 to 100 µM	< 5 µM	5 to 100 µM	Cc1ccc(S(=O)(=O)N2CCN(c3ccc(C(F)(F)F)c(F)c3)C[C@@H]2C)cc1CC(=O)O [Example 217, {5-[4-(3-Fluoro-4-trifluoromethyl-phenyl)-2-(S)-methyl-piperazine-1-sulfonyl]-2-methyl-phenyl}-acetic acid]
